Values joined by “and” are separate entries in the source; they are usually repeats but may differ in a detail not shown here. Identical values can stand only once. Counter-ions that a name gives are not always drawn. Like-named read-outs stand apart in the source and are kept apart here.

For test [1], the target named is T1, cdk4/cyclin D1 (Homo sapiens, UniProt P11802).
T1 construct: made in house; host or cells: Sf9 insect cells (Bac-to-Bac baculovirus, pFastBac)
Nature of the test: Cyclin-dependent Kinase 4 Assay (cdk4/cyclin D1, GST-Rb substrate). Format: biochemical. Conditions: cdk4/cyclin D1 insect cell lysate, 10 μM ATP, 30 min at 37° C., several values = separate determinations, read-out: CDK4 Inhibition IC50. In outline: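 Insect-cell lysate of coexpressed cdk4/cyclin D1 (0.1 μg) acts on GST-Rb (0.5 μg) bound to glutathione-Sepharose, in 50 mM HEPES pH 7.5, 10 mM MgCl2, 1 mM EGTA. Reaction runs 30 min at 37 °C, then is stopped by filtration and TNEN washes. Rb phosphorylation read by scintillation counting; IC50 derived.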

For test [2], the system named is DU145. Nature of the test: In vitro tumor cell proliferation, DU145. Format: cell-based, human. As to conditions: many values given with an undefined *, read-out: In vitro Tumor Cell Proliferation (IC50, μM) Prostate DU145. In outline:
(§1)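 Growth was quantified by sulforhodamine B staining of TCA-fixed cells after 3 days of drug plus 4 more days with fresh drug, or by CyQUANT after 3 days of drug and freezing at −80° C. Counted viable cells were plated and incubated overnight at 37° C before drug.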

In test [3] the test system is MDA-MB-435. Nature of the test: In vitro tumor cell proliferation, MDA-MB-435. The class given is cell-based. As to conditions: values given with an undefined *, read-out: In vitro Tumor Cell Proliferation (IC50, μM) Breast MDA-MB-435. The method in brief: as §1
In test [4] the test system is DMS-114. In words: In vitro tumor cell proliferation, DMS-114. As to conditions: many values given with an undefined *, read-out: In vitro Tumor Cell Proliferation (IC50, μM) Lung DMS-114. The class given is cell-based, human. In outline:
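Human small cell lung carcinoma DMS-114 cells plated overnight, then drug-treated for 3 days, medium and drug renewed, and incubated 4 more days. Growth read by sulforhodamine B staining after TCA fixation; alternatively by CyQUANT after 3 days' drug exposure and freezing at −80 °C.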

In test [5] the test system is MDA-MB-231. Nature of the test: In vitro tumor cell proliferation, MDA-MB-231. The class given is cell-based, human. As to conditions: sulforhodamine B or CyQUANT assay, many values given with an undefined *, read-out: In vitro Tumor Cell Proliferation (IC50, μM) Breast MDA-MB-231. In outline:
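Cells plated overnight at 37 °C, then exposed to drug for 3 days, refed with fresh drug and incubated 4 more days. Read-out by sulforhodamine B staining after TCA fixation; alternatively, CyQUANT after 3-day drug exposure and freezing at −80 °C.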

Test [6] has as its system PC-3. In words: In vitro tumor cell proliferation, PC-3. As to conditions: many values given with an undefined *, read-out: In vitro Tumor Cell Proliferation (IC50, μM) Prostate PC-3. Format: cell-based, human. In outline: as §1
Test [7] relates to HT-29. In words: In vitro tumor cell proliferation, HT-29. The class given is cell-based, human. As to conditions: many values given with an undefined *, read-out: In vitro Tumor Cell Proliferation (IC50, μM) Colon HT-29. In outline:
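HT-29 cells seeded overnight at 37° C, then exposed to drug for 3 days, refed with fresh drug-containing medium for 4 more days. Proliferation read by sulforhodamine B staining after TCA fixation; alternatively by CyQUANT after freezing plates at −80° C following 3 days' drug exposure.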

In test [8] the test system is A549. Nature of the test: In vitro tumor cell proliferation, A549. As to conditions: many values given with an undefined *, read-out: In vitro Tumor Cell Proliferation (IC50, μM) Lung A549. The class given is cell-based, human. The method in brief:
as §1

Test [9] deals with T2, cdk2/cyclin E (Homo sapiens, UniProt P24941).
T2 construct: made in house; host or cells: insect cells (baculovirus co-infection)
In words: Cyclin-Dependent Kinase 2 Assay (cdk2/cyclin E, GST-Rb substrate). Format: biochemical. Conditions: recombinant cdk2/cyclin E, 10 μM ATP, 30 min at 30° C., several values in a cell = separate determinations, read-out: CDK-2 Inhibition IC50. The procedure:
Substrate: GST-Rb as described above for cdk4/cyclin D1
Assay conditions for cdk2/cyclin E were identical to those for cdk4/cyclin D1 including the substrate. The concentration of recombinant cdk2/cyclin E in the assay was 0.1 μg per 100 μl assay. Incubation was for 30 min at 30° C.

In test [10] the test system is Colo-205. Nature of the test: In vitro tumor cell proliferation, Colo-205. Format: cell-based. As to conditions: values given with an undefined *, read-out: In vitro Tumor Cell Proliferation (IC50, μM) Colon Colo-205. In outline: as §1
Setting [11] is: Homo sapiens, MDA-MB-435, MDA-MB-435.
[12] abbreviates: Homo sapiens, MDA-MB-231, MDA-MB-231.
Setting [13] is: Homo sapiens, COLO 205, Colo-205.

T1 sequence (P11802 whole entry): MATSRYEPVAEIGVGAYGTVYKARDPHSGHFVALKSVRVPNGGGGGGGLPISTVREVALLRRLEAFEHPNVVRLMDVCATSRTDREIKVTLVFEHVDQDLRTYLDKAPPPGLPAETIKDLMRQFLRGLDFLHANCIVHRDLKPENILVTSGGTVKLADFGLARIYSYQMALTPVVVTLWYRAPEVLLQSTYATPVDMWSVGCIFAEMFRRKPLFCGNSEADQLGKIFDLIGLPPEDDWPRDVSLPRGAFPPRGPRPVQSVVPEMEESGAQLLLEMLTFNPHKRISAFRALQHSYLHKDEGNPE
T1 sequence (P24385 whole entry partner): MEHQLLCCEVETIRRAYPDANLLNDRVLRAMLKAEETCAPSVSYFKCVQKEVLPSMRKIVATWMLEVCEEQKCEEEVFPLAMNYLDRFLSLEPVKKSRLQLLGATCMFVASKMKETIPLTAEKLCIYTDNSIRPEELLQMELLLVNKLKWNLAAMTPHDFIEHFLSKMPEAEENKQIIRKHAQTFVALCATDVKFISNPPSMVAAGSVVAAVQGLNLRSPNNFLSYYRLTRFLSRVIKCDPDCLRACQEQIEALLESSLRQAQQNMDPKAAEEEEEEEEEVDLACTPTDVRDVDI

As for “2-[Trans-(4-aminocyclohexyl)amino]-6-[4-(1-(4-methylbenzyl))piperidinylamino]-9-cyclopentylpurine [Example 40]”, the IC50 in test [1] was 1000 nM and 2000 nM; in test [2] (DU145) it was 0.24 µM; in test [3] (MDA-MB-435), 0.27 µM; in test [4] (DMS-114) it was 0.26 µM; in test [5] (MDA-MB-231), 0.19 µM and 0.28 µM; in test [6] (PC-3), 0.34 µM. Besides, the IC50 was 0.29 µM and 0.27 µM in test [7] (HT-29); 0.18 µM in [8] (A549); 230 nM and 170 nM in test [9]; 0.16 µM and 0.18 µM in [10] (Colo-205).
Regarding `N[C@H]1CC[C@H](Nc2nc(Nc3ccc(OC(F)(F)F)cc3)c3ncn(C4CCCC4)c3n2)CC1` [Example 5, 2-[Trans-(4-aminocyclohexyl)amino]-6-[(4-trifluoromethoxy)phenylamino]-9-cyclopentylpurine dihydrochloride], the IC50 is 400 nM and 700 nM in test [1]; 0.7 µM in [2] (DU145, dihydrochloride); 0.56 µM in test [2] (Homo sapiens, DU-145, DU145); 1.3 µM in test [3] (setting [11]); 1.5 µM in test [3] (MDA-MB-435, dihydrochloride); 0.47 µM in test [4] (Homo sapiens, DMS-114, DMS-114). Also, the IC50 in test [5] (setting [12]) was 0.78 µM; in test [5] (MDA-MB-231, dihydrochloride), 0.87 µM; in test [6] (Homo sapiens, PC-3, PC-3), 1.1 µM; in test [6] (PC-3, dihydrochloride), 0.7 µM; in [7] (HT-29, dihydrochloride), 1.1 µM; in test [7] (Homo sapiens, HT-29, HT-29), 1 µM. For the same compound, the IC50 amounted to 0.53 µM in test [8] (A549, dihydrochloride); 0.35 µM in test [8] (Homo sapiens, A549, A549); 230 nM in test [9]; 1.2 µM in test [10] (Colo-205, dihydrochloride); 1 µM in [10] (setting [13]).
With `COc1cccc(CCNc2nc(N[C@H]3CC[C@H](N)CC3)nc3c2ncn3C2CCCC2)c1` [Example 27, 2-[Trans-(4-aminocyclohexyl)amino]-6-[2-(3-methoxyphenyl)ethylamino]-9-cyclopentylpurine dihydrochloride], the IC50 in [1] is 1400 nM; in test [3] (setting [11]), 9.3 µM; in test [3] (MDA-MB-435, dihydrochloride), 7.2 µM; in [4] (Homo sapiens, DMS-114, DMS-114), 2.1 µM; in test [5] (setting [12]), 10 µM; in test [5] (MDA-MB-231, dihydrochloride), 6 µM. Besides, the IC50 in test [6] (Homo sapiens, PC-3, PC-3) worked out at 2.6 µM; in [6] (PC-3, dihydrochloride), 3 µM; in test [7] (HT-29, dihydrochloride) it was 5.2 µM; in test [7] (Homo sapiens, HT-29, HT-29), 3.8 µM; in test [8] (A549, dihydrochloride) it was 1.6 µM; in test [8] (Homo sapiens, A549, A549), 3.1 µM. Moreover, the IC50 in test [9] amounted to 130 nM; in test [10] (Colo-205, dihydrochloride) it was 4.6 µM; in [10] (setting [13]) it was 4.9 µM.
As for `N[C@H]1CC[C@H](Nc2nc(Nc3ccccc3)c3ncn(C4CCCC4)c3n2)CC1` [Example 32, 2-[Trans-(4-aminocyclohexyl)amino]-6-(phenylamino)-9-cyclopentylpurine dihydrochloride], the IC50 in [1] is 1300 nM and 1600 nM; in test [2] (DU145, dihydrochloride) it was 0.64 µM; in [2] (Homo sapiens, DU-145, DU145), 0.39 µM; in test [3] (setting [11]), 1.59 µM; in [3] (MDA-MB-435, dihydrochloride) it was 1.39 µM; in test [4] (DMS-114, dihydrochloride), 0.51 µM. The IC50 in test [4] (Homo sapiens, DMS-114, DMS-114) came to 0.61 µM; in [5] (setting [12]) it was 0.85 µM; in test [5] (MDA-MB-231, dihydrochloride), 0.68 µM; in test [7] (HT-29, dihydrochloride), 1.1 µM; in [7] (Homo sapiens, HT-29, HT-29), 1 µM; in [8] (A549, dihydrochloride) it was 0.68 µM. For the same compound, the IC50 was 0.37 µM in test [8] (Homo sapiens, A549, A549); 54 nM and 25 nM and 27 nM and 14 nM in test [9]; 1.2 µM in [10] (Colo-205, dihydrochloride); 0.82 µM in test [10] (setting [13]).
For `N[C@H]1CC[C@H](Nc2nc(NC3CCN(CC4CC4)CC3)c3ncn(C4CCCC4)c3n2)CC1` [Example 52, 2-[Trans-(4-aminocyclohexyl)amino]-6-[4-(1-cyclopropylmethyl)piperidinylamino]-9-cyclopentylpurine], the IC50 in test [1] is 740 nM and 1400 nM and 1100 nM; in test [2] (DU145) it was 1.5 µM; in test [2] (Homo sapiens, DU-145, DU145), 1.4 µM; in test [3] (setting [11]) it was 2.1 µM; in test [3] (MDA-MB-435) it was 2.4 µM; in test [5] (setting [12]), 1 µM. In addition, the IC50 came out at 1.2 µM in test [5] (MDA-MB-231); 1.7 µM in test [6] (Homo sapiens, PC-3, PC-3); 2.1 µM in test [6] (PC-3); 2 µM in test [7] (HT-29); 1.6 µM in test [7] (Homo sapiens, HT-29, HT-29); 0.68 µM in test [8] (A549). In addition, the IC50 in test [8] (Homo sapiens, A549, A549) was 0.57 µM; in test [9] it was 190 nM; in [10] (Colo-205) it was 1.1 µM; in test [10] (setting [13]) it was 1.5 µM.
As to `N[C@H]1CC[C@H](Nc2nc(NNc3ccc(Cl)cc3Cl)c3ncn(C4CCCC4)c3n2)CC1` [Example 147, 2-[Trans-(4-aminocyclohexyl)amino]-6-(2,4-dichlorophenylhydrazino)-9-cyclopentylpurine dihydrochloride], the IC50 in test [1] is 5700 nM and 6100 nM; in test [2] (DU145, dihydrochloride) it was 5.7 µM; in test [2] (Homo sapiens, DU-145, DU145), 3.1 µM; in [3] (setting [11]), 5.6 µM; in [3] (MDA-MB-435, dihydrochloride), 6 µM; in test [5] (setting [12]) it was 5.1 µM. Also, the IC50 came to 3.2 µM in test [5] (MDA-MB-231, dihydrochloride); 3.2 µM in test [6] (Homo sapiens, PC-3, PC-3); 2.3 µM in test [6] (PC-3, dihydrochloride); 2 µM in test [7] (HT-29, dihydrochloride); 2.8 µM in test [7] (Homo sapiens, HT-29, HT-29); 2.6 µM in [8] (A549, dihydrochloride). Moreover, the IC50 came out at 2.7 µM in test [8] (Homo sapiens, A549, A549); 268 nM in [9]; 3.5 µM in test [10] (Colo-205, dihydrochloride); 5.7 µM in test [10] (setting [13]).
